Experiments:
Experiment in all cases: radiometric filter-binding kinase assay, Kinase HotSpot
Conditions in all cases: compound 0.5 µM; ATP 10 µM
CDK1 CCNA2 (human) = CDK1 CCNA2 (human) (UniProt P06493+P20248)
MAP3K2 (human) = MAP3K2 (human) (UniProt Q9Y2U5)
VRK1 (human) = VRK1 (human) (UniProt Q99986)
CDK4 CCND3 (human) = CDK4 CCND3 (human) (UniProt P30281+P11802)
TAOK1 (human) = TAOK1 (human) (UniProt Q7L7X3)
ERBB2 (human) = ERBB2 (human) (UniProt P04626)
RPS6KB1 (human) = RPS6KB1 (human) (UniProt P23443)
PAK3 (human) = PAK3 (human) (UniProt O75914)
FES (human) = FES (human) (UniProt P07332)
TNK2 (human) = TNK2 (human) (UniProt Q07912)
ACVR1B (human) = ACVR1B (human) (UniProt P36896)
DDR2 (human) = DDR2 (human) (UniProt Q16832)
PKN2 (human) = PKN2 (human) (UniProt Q16513)
PHKG2 (human) = PHKG2 (human) (UniProt P15735)
AURKC (human) = AURKC (human) (UniProt Q9UQB9)
CDK5 CDK5R1 p25 (human) = CDK5 CDK5R1 p25 (human) (UniProt Q00535+Q15078)
WEE1 (human) = WEE1 (human) (UniProt P30291)
AKT2 (human) = AKT2 (human) (UniProt P31751)
TSSK1B (human) = TSSK1B (human) (UniProt Q9BXA7)
MERTK (human) = MERTK (human) (UniProt Q12866)
RAF1 (human) = RAF1 (human) (UniProt P04049)
MAPK14 (human) = MAPK14 (human) (UniProt Q16539)
CLK3 (human) = CLK3 (human) (UniProt P49761)
KDR (human) = KDR (human) (UniProt P35968)
ERBB4 (human) = ERBB4 (human) (UniProt Q15303)
TEC (human) = TEC (human) (UniProt P42680)
PDPK1 (human) = PDPK1 (human) (UniProt O15530)
KIT (human) = KIT (human) (UniProt P10721)
FGR (human) = FGR (human) (UniProt P09769)
STK11 (human) = STK11 (human) (UniProt Q15831)
DAPK2 (human) = DAPK2 (human) (UniProt Q9UIK4)
PBK (human) = PBK (human) (UniProt Q96KB5)
NEK11 (human) = NEK11 (human) (UniProt Q8NG66)
MAPK1 (human) = MAPK1 (human) (UniProt P28482)
MAP3K7 TAB1 (human) = MAP3K7 TAB1 (human) (UniProt O43318+Q15750)
CDK6 CCND1 (human) = CDK6 CCND1 (human) (UniProt Q00534+P24385)
RET (human) = RET (human) (UniProt P07949)
EPHA4 (human) = EPHA4 (human) (UniProt P54764)
TAOK2 (human) = TAOK2 (human) (UniProt Q9UL54)
CSNK1D (human) = CSNK1D (human) (UniProt P48730)
RPS6KA5 KD2 (human) = RPS6KA5 KD2 (human) (UniProt O75582)
Chain of RPS6KA5 KD2 (human) (O75582 whole entry, looked up): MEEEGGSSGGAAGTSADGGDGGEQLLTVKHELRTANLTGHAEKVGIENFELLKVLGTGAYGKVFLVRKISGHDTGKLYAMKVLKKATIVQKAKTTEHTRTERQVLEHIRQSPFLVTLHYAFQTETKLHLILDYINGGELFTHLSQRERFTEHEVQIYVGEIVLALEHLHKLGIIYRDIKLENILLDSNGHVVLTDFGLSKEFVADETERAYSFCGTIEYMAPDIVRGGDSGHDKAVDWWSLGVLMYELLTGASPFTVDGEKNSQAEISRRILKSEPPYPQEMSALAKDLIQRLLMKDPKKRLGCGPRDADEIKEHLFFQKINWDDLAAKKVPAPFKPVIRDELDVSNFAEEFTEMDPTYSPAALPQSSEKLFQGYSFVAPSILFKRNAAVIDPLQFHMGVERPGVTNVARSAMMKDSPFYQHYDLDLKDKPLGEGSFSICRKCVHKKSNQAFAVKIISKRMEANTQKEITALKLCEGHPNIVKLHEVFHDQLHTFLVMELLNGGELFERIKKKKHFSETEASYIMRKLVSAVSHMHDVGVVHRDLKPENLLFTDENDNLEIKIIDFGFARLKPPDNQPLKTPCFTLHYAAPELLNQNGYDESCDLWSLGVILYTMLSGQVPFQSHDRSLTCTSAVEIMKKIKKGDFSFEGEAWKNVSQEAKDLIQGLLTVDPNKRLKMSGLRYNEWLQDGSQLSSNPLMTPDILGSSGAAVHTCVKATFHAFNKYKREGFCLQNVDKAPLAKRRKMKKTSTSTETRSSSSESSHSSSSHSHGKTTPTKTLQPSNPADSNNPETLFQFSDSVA

Chain of KDR (human) (P35968 whole entry, looked up): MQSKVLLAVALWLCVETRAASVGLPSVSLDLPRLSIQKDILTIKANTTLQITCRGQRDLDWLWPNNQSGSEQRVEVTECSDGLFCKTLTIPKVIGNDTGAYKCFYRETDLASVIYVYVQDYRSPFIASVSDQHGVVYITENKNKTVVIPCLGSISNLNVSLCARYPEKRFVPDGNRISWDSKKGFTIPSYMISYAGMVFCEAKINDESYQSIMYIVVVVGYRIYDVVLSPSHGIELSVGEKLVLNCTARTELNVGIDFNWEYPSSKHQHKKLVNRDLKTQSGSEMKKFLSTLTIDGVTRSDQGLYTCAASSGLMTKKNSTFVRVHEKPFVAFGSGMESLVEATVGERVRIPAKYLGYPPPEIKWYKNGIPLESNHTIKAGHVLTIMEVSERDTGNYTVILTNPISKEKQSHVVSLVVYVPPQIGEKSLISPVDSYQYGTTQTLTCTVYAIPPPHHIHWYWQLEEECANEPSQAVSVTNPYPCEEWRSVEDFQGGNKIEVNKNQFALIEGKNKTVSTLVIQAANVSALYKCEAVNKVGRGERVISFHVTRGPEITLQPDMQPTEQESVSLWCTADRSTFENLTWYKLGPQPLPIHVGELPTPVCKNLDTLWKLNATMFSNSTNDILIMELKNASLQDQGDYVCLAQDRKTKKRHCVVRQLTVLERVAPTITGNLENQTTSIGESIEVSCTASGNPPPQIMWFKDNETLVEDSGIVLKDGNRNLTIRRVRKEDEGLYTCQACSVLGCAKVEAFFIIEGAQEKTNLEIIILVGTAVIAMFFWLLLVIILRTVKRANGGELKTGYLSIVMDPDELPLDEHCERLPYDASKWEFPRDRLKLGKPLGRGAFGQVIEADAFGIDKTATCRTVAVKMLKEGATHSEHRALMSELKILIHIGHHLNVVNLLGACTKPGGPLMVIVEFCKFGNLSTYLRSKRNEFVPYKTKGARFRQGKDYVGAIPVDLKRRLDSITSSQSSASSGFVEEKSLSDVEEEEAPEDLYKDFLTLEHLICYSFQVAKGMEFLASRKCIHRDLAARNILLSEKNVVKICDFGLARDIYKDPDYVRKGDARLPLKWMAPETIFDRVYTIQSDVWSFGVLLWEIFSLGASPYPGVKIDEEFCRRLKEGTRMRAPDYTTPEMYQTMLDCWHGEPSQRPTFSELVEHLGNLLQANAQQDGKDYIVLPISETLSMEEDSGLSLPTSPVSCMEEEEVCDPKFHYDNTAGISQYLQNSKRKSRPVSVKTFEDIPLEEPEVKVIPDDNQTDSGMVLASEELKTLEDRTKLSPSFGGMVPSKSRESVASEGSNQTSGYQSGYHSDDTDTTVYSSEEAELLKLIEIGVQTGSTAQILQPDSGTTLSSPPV
Chain of STK11 (human) (Q15831 whole entry, looked up): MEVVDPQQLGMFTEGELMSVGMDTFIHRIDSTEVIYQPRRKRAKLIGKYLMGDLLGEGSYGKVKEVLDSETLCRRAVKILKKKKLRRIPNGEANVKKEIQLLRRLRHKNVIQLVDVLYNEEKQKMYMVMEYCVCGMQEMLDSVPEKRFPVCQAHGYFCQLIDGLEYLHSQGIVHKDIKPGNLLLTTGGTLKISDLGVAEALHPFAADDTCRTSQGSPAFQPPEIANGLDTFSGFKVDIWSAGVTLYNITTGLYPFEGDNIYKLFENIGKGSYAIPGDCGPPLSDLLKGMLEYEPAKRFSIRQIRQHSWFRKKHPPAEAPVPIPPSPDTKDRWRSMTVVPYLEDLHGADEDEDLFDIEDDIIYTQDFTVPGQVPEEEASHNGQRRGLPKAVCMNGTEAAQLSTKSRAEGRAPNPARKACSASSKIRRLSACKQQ
Chain of CDK5 CDK5R1 p25 (human) (Q00535 whole entry, looked up): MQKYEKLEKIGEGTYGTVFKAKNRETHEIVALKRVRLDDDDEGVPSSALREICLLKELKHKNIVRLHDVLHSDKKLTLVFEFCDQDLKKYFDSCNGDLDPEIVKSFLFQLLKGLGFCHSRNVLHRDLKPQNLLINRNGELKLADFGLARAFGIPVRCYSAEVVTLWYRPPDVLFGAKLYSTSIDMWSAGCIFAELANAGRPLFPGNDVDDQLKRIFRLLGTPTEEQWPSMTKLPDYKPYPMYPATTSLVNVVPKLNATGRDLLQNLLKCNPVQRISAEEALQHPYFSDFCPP
Chain of CDK5 CDK5R1 p25 (human) (Q15078 whole entry, looked up): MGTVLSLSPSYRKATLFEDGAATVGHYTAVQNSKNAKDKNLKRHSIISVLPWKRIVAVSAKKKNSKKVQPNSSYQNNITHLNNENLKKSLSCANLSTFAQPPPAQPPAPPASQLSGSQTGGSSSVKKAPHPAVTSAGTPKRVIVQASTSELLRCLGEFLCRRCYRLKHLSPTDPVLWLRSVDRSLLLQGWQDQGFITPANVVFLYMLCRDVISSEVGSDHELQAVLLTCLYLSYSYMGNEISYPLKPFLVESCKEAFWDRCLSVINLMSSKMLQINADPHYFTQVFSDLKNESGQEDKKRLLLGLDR
Chain of PBK (human) (Q96KB5 whole entry, looked up): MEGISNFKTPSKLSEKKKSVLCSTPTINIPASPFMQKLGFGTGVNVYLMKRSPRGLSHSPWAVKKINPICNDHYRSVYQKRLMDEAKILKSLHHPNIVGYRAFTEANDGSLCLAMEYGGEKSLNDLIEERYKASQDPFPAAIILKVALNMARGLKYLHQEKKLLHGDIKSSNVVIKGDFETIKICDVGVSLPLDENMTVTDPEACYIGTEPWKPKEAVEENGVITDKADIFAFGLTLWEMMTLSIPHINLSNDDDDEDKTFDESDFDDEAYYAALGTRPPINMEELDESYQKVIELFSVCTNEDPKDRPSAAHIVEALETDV
Chain of AURKC (human) (Q9UQB9 whole entry, looked up): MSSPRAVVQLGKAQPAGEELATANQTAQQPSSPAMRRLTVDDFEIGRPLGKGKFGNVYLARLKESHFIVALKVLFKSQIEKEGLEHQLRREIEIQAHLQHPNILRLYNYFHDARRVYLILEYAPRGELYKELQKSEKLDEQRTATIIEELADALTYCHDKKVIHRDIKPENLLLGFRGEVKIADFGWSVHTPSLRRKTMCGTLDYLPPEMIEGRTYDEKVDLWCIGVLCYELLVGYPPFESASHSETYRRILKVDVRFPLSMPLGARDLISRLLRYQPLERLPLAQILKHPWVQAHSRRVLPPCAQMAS
Chain of DDR2 (human) (Q16832 whole entry, looked up): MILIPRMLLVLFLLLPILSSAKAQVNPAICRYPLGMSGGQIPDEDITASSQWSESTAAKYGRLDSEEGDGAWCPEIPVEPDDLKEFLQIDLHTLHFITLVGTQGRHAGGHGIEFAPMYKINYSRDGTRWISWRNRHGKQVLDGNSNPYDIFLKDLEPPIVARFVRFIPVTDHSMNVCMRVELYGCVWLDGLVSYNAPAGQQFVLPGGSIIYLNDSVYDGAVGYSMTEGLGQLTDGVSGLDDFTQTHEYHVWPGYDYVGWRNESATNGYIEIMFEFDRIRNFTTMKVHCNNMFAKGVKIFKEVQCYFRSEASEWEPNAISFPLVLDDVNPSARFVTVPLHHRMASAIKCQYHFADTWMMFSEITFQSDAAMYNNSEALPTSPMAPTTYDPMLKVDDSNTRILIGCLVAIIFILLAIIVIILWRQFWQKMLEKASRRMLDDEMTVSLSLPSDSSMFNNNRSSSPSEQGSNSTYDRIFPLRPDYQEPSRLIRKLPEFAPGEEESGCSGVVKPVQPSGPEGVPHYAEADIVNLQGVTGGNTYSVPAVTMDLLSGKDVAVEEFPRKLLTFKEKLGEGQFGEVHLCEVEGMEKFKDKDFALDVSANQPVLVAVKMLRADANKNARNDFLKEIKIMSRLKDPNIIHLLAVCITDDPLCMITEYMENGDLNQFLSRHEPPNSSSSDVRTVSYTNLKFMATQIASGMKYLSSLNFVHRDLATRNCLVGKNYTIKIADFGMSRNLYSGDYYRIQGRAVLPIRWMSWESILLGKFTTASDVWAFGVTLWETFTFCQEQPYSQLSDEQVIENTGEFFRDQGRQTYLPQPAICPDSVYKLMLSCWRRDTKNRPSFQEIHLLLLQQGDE

CC[n+]1c(/C=C/N(C)c2ccccc2)n(-c2ccccc2)c2ccc(-c3nc4ccccc4s3)cc21
residual activity (CDK1 CCNA2 (human)): 98.8% | residual activity (MAP3K2 (human)): 90.3% | residual activity (VRK1 (human)): 90.9% | residual activity (CDK4 CCND3 (human)): 102% | residual activity (TAOK1 (human)): 99.4% | residual activity (ERBB2 (human)): 92% | residual activity (RPS6KB1 (human)): 96.8% | residual activity (PAK3 (human)): 109% | residual activity (FES (human)): 101% | residual activity (TNK2 (human)): 98% | residual activity (ACVR1B (human)): 110% | residual activity (DDR2 (human)): 97.4% | residual activity (PKN2 (human)): 79.2% | residual activity (PHKG2 (human)): 102% | residual activity (AURKC (human)): 91.3% | residual activity (CDK5 CDK5R1 p25 (human)): 103% | residual activity (WEE1 (human)): 92.4% | residual activity (AKT2 (human)): 99.6% | residual activity (TSSK1B (human)): 102% | residual activity (MERTK (human)): 96.5% | residual activity (RAF1 (human)): 96.8% | residual activity (MAPK14 (human)): 94.9% | residual activity (CLK3 (human)): 114% | residual activity (KDR (human)): 93.9% | residual activity (ERBB4 (human)): 102% | residual activity (TEC (human)): 161% | residual activity (PDPK1 (human)): 103% | residual activity (KIT (human)): 104% | residual activity (FGR (human)): 94.1% | residual activity (STK11 (human)): 93.1% | residual activity (DAPK2 (human)): 94.3% | residual activity (PBK (human)): 107% | residual activity (NEK11 (human)): 91.6% | residual activity (MAPK1 (human)): 112% | residual activity (MAP3K7 TAB1 (human)): 98.8% | residual activity (CDK6 CCND1 (human)): 103% | residual activity (RET (human)): 95.6% | residual activity (EPHA4 (human)): 91.9% | residual activity (TAOK2 (human)): 97.7% | residual activity (CSNK1D (human)): 104% | residual activity (RPS6KA5 KD2 (human)): 111%

O=c1cc(N2CCOCC2)oc2c1ccc1ccccc12
residual activity (CDK1 CCNA2 (human)): 103% | residual activity (MAP3K2 (human)): 109% | residual activity (VRK1 (human)): 93.3% | residual activity (CDK4 CCND3 (human)): 96.8% | residual activity (TAOK1 (human)): 97.5% | residual activity (ERBB2 (human)): 105% | residual activity (RPS6KB1 (human)): 99.3% | residual activity (PAK3 (human)): 102% | residual activity (FES (human)): 100% | residual activity (TNK2 (human)): 100% | residual activity (ACVR1B (human)): 103% | residual activity (DDR2 (human)): 105% | residual activity (PKN2 (human)): 93.2% | residual activity (PHKG2 (human)): 99.8% | residual activity (AURKC (human)): 107% | residual activity (CDK5 CDK5R1 p25 (human)): 98.9% | residual activity (WEE1 (human)): 101% | residual activity (AKT2 (human)): 98.9% | residual activity (TSSK1B (human)): 101% | residual activity (MERTK (human)): 96.4% | residual activity (RAF1 (human)): 97.9% | residual activity (MAPK14 (human)): 96.7% | residual activity (CLK3 (human)): 81.1% | residual activity (KDR (human)): 86.8% | residual activity (ERBB4 (human)): 101% | residual activity (TEC (human)): 150% | residual activity (PDPK1 (human)): 109% | residual activity (KIT (human)): 105% | residual activity (FGR (human)): 94.6% | residual activity (STK11 (human)): 104% | residual activity (DAPK2 (human)): 115% | residual activity (PBK (human)): 103% | residual activity (NEK11 (human)): 99.1% | residual activity (MAPK1 (human)): 104% | residual activity (MAP3K7 TAB1 (human)): 98.3% | residual activity (CDK6 CCND1 (human)): 102% | residual activity (RET (human)): 99.8% | residual activity (EPHA4 (human)): 94.4% | residual activity (TAOK2 (human)): 108% | residual activity (CSNK1D (human)): 97.9% | residual activity (RPS6KA5 KD2 (human)): 103%

c1ccc(-c2n[nH]c3c2oc2ccccc23)cc1
residual activity (CDK1 CCNA2 (human)): 94.1% | residual activity (MAP3K2 (human)): 85.9% | residual activity (VRK1 (human)): 83.1% | residual activity (CDK4 CCND3 (human)): 101% | residual activity (TAOK1 (human)): 121% | residual activity (ERBB2 (human)): 104% | residual activity (RPS6KB1 (human)): 99.9% | residual activity (PAK3 (human)): 89.2% | residual activity (FES (human)): 114% | residual activity (TNK2 (human)): 85.8% | residual activity (ACVR1B (human)): 96.6% | residual activity (DDR2 (human)): 96% | residual activity (PKN2 (human)): 97.5% | residual activity (PHKG2 (human)): 112% | residual activity (AURKC (human)): 96.7% | residual activity (CDK5 CDK5R1 p25 (human)): 99% | residual activity (WEE1 (human)): 92.6% | residual activity (AKT2 (human)): 112% | residual activity (TSSK1B (human)): 97.2% | residual activity (MERTK (human)): 80% | residual activity (RAF1 (human)): 94.9% | residual activity (MAPK14 (human)): 102% | residual activity (CLK3 (human)): 91% | residual activity (KDR (human)): 107% | residual activity (ERBB4 (human)): 89.7% | residual activity (TEC (human)): 95.6% | residual activity (PDPK1 (human)): 94.7% | residual activity (KIT (human)): 38% | residual activity (FGR (human)): 116% | residual activity (STK11 (human)): 107% | residual activity (DAPK2 (human)): 71.2% | residual activity (PBK (human)): 94.8% | residual activity (NEK11 (human)): 103% | residual activity (MAPK1 (human)): 118% | residual activity (MAP3K7 TAB1 (human)): 104% | residual activity (CDK6 CCND1 (human)): 90.4% | residual activity (RET (human)): 78.2% | residual activity (EPHA4 (human)): 95.5% | residual activity (TAOK2 (human)): 80.7% | residual activity (CSNK1D (human)): 93.1% | residual activity (RPS6KA5 KD2 (human)): 94.9%

Reference: the kinase profiling compilation of Christmann-Franck et al. (2016)
